Assay [1] concerns the target T1, JAK1 (Homo sapiens, UniProt P23458).
T1 construct: purchased Carna 08-114
The experiment in a line: In vitro activity test of JAK1 kinase (Caliper EZ Reader conversion assay). Format: biochemical. As to conditions: enzyme activity, 10 concentrations from 1000 nM, 3-fold dilution. Here is the method: (§1) In Vitro Activity Test of JAK1 and JAK2 Kinases
(§2) • Centrifuge (manufacturer: Eppendorf, model: 5430) • ELISA Instrument (Manufacturer: Perkin Elmer, Model: Caliper EZ Reader 1I) • Echo 550 (Manufacturer: Labcyte, Model: Echo 550)
(§3) (1) Prepare 1 Kinase buffer.
(§4) (2) Compound concentration gradient preparation: The test compound was tested at 1000 nM, 3-fold dilution, 10 concentrations, two-well assay, and configured to a 100-fold final concentration in a 384-well plate. 250 nl of the test compound was then transferred to the 384 reaction plate using Echo550. 250 nl of 100% DMSO was added to each of the negative and positive control wells.
(§5) (3) Prepare 2.5 times the final concentration of kinase solution with 1×Kinase buffer.
(§6) (4) Add 10 μL of 2.5 times the final concentration of kinase solution to the compound wells and 10 μL of 1×Kinase buffer to the negative control wells.
(§7) (5) Centrifuge at 1000 rpm for 30 seconds, mix well with shaking, and incubate at room temperature for 10 minutes.
(§8) (6) Prepare a 25/15-fold final concentration of mixture of ATP and Kinase substrate with 1×Kinase buffer.
(§9) (7) Add 15 μL of a mixture of 25/15 times the final concentration of ATP and substrate to start the reaction.
(§10) (8) Centrifuge the 384-well plate at 1000 rpm for 30 seconds, mix well with shaking, and incubate at room temperature for an appropriate amount of time.
(§11) (9) Stop the kinase reaction by adding 30 μL of termination solution, centrifuge at 1000 rpm for 30 seconds, and mix well with shaking.
(§12) (10) Read the conversion rate with Caliper EZ Reader.
(§13) where: Conversion %_sample is the conversion rate reading of the sample-, Conversion %_min: the average value of the negative control wells, representing the conversion reading of the wells without enzyme activity: Conversion %-max: the average value of the positive control wells, representing the conversion reading of the wells without compound inhibition.
(§14) The log value of concentration was used as the X-axis and the percentage inhibition as the Y-axis, and the function of the analytical software GraphPad Prism 5; log(inhibitor) vs. response -Variable slope, was used to lit dose-effect curves to obtain the IC50) values of each compound on enzyme activity.
(§15) The formula is Y=Bottom+(Top-Bottom)/(1+10^((LogIC50-X)*HillSlope))
(§16) The 1C50 data are specified in Table 1.

The target in assay [2] is T2, JAK2 (Homo sapiens, UniProt O60674).
T2 construct: purchased Carna 08-045
T2 sequence (O60674 whole entry, species assumed): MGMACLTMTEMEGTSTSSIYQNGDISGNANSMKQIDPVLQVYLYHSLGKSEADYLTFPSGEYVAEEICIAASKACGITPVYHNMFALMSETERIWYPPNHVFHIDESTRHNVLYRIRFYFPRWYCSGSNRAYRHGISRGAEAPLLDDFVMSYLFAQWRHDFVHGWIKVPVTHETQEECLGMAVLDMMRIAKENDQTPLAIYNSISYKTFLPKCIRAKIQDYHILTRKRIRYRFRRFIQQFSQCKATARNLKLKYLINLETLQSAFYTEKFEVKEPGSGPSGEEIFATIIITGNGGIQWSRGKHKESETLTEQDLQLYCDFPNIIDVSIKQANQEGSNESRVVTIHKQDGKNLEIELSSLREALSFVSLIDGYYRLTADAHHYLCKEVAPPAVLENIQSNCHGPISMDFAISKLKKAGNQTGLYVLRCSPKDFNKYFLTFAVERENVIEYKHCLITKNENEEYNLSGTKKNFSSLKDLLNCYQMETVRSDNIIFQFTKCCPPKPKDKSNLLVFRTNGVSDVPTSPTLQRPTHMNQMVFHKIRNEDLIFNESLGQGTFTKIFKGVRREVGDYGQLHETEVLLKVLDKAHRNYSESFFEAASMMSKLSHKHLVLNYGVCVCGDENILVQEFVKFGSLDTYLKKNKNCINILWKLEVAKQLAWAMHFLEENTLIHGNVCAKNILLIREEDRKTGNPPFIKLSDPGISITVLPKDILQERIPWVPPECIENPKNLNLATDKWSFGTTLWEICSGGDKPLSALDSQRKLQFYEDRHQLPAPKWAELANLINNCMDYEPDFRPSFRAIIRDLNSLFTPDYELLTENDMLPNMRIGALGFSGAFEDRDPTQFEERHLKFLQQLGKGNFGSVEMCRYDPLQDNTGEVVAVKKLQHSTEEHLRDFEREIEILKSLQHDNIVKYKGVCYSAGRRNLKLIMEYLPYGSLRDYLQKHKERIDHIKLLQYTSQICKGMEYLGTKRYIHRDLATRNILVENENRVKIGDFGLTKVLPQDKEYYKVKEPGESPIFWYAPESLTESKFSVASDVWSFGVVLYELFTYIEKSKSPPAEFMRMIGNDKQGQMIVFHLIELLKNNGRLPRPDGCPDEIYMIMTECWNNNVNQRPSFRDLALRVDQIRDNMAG
The experiment in a line: In vitro activity test of JAK2 kinase (Caliper EZ Reader conversion assay). Type of assay: biochemical. The conditions noted are these: enzyme activity, 10 concentrations from 1000 nM, 3-fold dilution. Here is the method:
as §1, §2, §3, §4, §5, §6, §7, §8, §9, §10, §11, §12, §13, §14, §15, §16

Bounds are passed on as bounds.

In general, IC50 refers to the midpoint of a concentration-inhibition curve. Lower therefore signals greater potency in that assay.

T1 sequence (P23458 whole entry, species assumed): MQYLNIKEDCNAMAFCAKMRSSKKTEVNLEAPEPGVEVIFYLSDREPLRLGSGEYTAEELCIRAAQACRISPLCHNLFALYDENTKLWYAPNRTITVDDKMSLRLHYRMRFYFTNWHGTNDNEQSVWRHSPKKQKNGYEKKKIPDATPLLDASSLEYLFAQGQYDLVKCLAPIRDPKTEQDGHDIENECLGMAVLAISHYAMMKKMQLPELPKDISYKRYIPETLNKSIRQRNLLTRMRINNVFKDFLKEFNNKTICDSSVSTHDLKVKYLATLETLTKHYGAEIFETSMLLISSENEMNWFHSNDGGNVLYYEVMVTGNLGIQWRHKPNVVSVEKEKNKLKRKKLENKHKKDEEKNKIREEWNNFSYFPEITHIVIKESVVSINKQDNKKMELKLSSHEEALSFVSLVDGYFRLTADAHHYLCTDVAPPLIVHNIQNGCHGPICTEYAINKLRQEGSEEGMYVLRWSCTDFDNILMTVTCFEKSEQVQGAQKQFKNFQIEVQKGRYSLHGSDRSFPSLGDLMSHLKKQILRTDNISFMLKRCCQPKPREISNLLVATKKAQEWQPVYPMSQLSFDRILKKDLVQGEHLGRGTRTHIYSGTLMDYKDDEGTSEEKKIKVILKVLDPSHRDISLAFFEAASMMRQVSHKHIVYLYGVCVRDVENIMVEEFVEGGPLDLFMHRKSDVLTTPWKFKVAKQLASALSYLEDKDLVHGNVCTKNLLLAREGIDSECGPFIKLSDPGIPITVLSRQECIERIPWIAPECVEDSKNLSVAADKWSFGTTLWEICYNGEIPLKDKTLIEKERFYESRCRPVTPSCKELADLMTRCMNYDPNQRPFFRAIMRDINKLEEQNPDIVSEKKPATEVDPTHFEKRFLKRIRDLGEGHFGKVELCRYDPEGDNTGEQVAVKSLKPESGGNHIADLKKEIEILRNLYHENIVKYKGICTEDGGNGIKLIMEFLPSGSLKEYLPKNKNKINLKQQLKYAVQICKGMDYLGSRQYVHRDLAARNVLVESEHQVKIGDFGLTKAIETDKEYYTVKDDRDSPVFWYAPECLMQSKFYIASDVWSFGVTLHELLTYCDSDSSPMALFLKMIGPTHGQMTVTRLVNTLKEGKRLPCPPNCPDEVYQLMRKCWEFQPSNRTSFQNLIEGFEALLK

Consider `Cc1ncc(-c2nc3cnc4[nH]ccc4c3n2C2CCC(C#N)CC2)s1` (stereo in doubt) [LXS26, trans-4-(2-(2-Methylthiazol-5-yl)imidazo[4,5-d]pyrrolo[2,3-b]pyridin-1(6H)-yl)cyclohexanecarbonitrile], for which the IC50 in assay [1] and in assay [2] was 10 to 100 nM each time.
As to `C[C@@H](O)c1nc2cnc3[nH]ccc3c2n1[C@H]1CCN(CCCCCF)C1` [LXS73, (R)-1-(1-((S)-1-(5-fluoropentyl)pyrrolidin-3-yl)-1,6-dihydroimidazo[4,5-d]pyrrolo[2,3-b]pyridin-2-yl) ethanol], the IC50 in assay [1] was under 10 nM; in assay [2] it was 100 to 1000 nM.
In the same order, the values of `N#C[C@H]1CC[C@H](n2c(-c3cnc(N)s3)nc3cnc4[nH]ccc4c32)CC1` (stereo in doubt) [LXS27, trans-4-(2-(2-Aminothiazol-5-yl)imidazo[4,5-d]pyrrolo[2,3-b]pyridin-1(6H)-yl)cyclohexanecarbonitrile] are 10 to 100 nM and 10 to 100 nM.
In the same order, the values of `C[C@@H](O)c1nc2cnc3[nH]ccc3c2n1[C@H]1CCN(CCC(F)(F)C(F)(F)F)C1` [LXS97, (R)-1-(1-((S)-1-(3,3,4,4,4-Pentafluorobutyl)pyrrolidin-3-yl)imidazo[4,5-d]pyrrolo[2,3-b]pyridin-2-yl)ethanol] are under 10 nM and 100 to 1000 nM.
As for `CCCS(=O)(=O)N1CCC(n2c(-c3cccnc3N)nc3cnc4[nH]ccc4c32)C1` (stereo not drawn) [LXS47, 3-(1-(1-(propylsulfonyl)pyrrolidin-3-yl)-1,6-dihydroimidazo[4,5-d]pyrrolo[2,3-b]pyridin-2-yl)pyridin-2-amine], the IC50 in assay [1] and in assay [2] was 100 to 1000 nM in each case.
In the case of `CSc1ccc(-c2nc3cnc4[nH]ccc4c3n2C2CCC(C#N)CC2)cc1` (stereo in doubt) [LXS42, trans-4-(2-(4-(Methylthio)phenyl)imidazo[4,5-d]pyrrolo[2,3-b]pyridin-1(6H)-yl)cyclohexanecarbonitrile], the IC50 in assay [1] and in assay [2] was 100 to 1000 nM each time.
Regarding `N#CCn1cc(-n2c(-c3ccc(CO)o3)nc3cnc4[nH]ccc4c32)cn1` [LXS81, 2-(4-(2-(5-(Hydroxymethyl)furan-2-yl)imidazo[4,5-d]pyrrolo[2,3-b]pyridin-1(6H)-yl)-1H-pyrazol-1-yl)acetonitrile], the IC50 in assay [1] and in assay [2] was 10 to 100 nM each time.
On to `C[C@@H](O)c1nc2cnc3[nH]ccc3c2n1[C@H]1CCN(S(=O)(=O)CCC(F)(F)F)C1` [LXS102, (R)-1-(1-((S)-1-((3,3,3-Trifluoropropyl)sulfonyl)pyrrolidin-3-yl)imidazo[4,5-d]pyrrolo[2,3-b]pyridin-2-yl)ethanol], for which the figures for the IC50 in assay [1] and in assay [2] were under 10 nM and 100 to 1000 nM, respectively.
Turning to `CCS(=O)(=O)N1CC(CC#N)(n2cc(-n3c(-c4cccs4)nc4cnc5[nH]ccc5c43)cn2)C1` [LXS63, 2-(1-(Ethylsulfonyl)-3-(4-(2-(thiophen-2-yl)imidazo[4,5-d]pyrrolo[2,3-b]pyridin-1(6H)-yl)-1H-pyrazol-1-yl)azetidin-3-yl)acetonitrile], the IC50 in assay [1] was 100 to 1000 nM; in assay [2], under 10 nM.
In the same order, the values of `N#CCCCn1cc(-n2c(C3CC3)nc3cnc4[nH]ccc4c32)cn1` [LXS108, 4-(4-(2-cyclopropylimidazo[4,5-d]pyrrolo[2,3-b]pyridin-1(6H)-yl)-1H-pyrazol-1-yl)butanenitrile] are 100 to 1000 nM and 10 to 100 nM.
On to `N#CCCCn1cc(-n2c(C3CCC3)nc3cnc4[nH]ccc4c32)cn1` [LXS107, 4-(4-(2-cyclobutylimidazo[4,5-d]pyrrolo[2,3-b]pyridin-1(6H)-yl)-1H-pyrazol-1-yl)butanenitrile], for which the IC50 in assay [1] fell in the range of 100 to 1000 nM; in assay [2], 10 to 100 nM.
For the compound `C[C@@H](O)c1nc2cnc3[nH]ncc3c2n1[C@H]1CCN(CCCC(F)(F)F)C1` [LXS90, (R)-1-(1-((S)-1-(4,4,4-trifluorobutyl)pyrrolidin-3-yl)-1,6-dihydroimidazo[4,5-d]pyrazolo[3,4-b]pyridin-2-yl)ethan-1-ol], the IC50 in assay [1] was 10 to 100 nM; in assay [2], 100 to 1000 nM.
For the compound `C[C@@H](O)c1nc2cnc3[nH]ccc3c2n1[C@H]1CCN(CCCC(F)(F)F)C1` [LXS71, (R)-1-(1-((S)-1-(4,4,4-Trifluorobutyl)pyrrolidin-3-yl)-1,6-dihydroimidazo[4,5-d]pyrrolo[2,3-b]pyridin-2-yl)ethanol], the values for the IC50 in assay [1] and in assay [2] were under 10 nM and 100 to 1000 nM, respectively.
In the same order, the values of `C[C@@H](O)c1nc2cnc3[nH]ccc3c2n1[C@H]1C[C@@H](CO)N(CCCC(F)(F)F)C1` [LXS89, (R)-1-(1-((3S,5S)-5-(hydroxymethyl)-1-(4,4,4-trifluorobutyl)pyrrolidin-3-yl)-1,6-dihydroimidazo[4,5-d]pyrrolo[2,3-b]pyridin-2-yl)ethan-1-ol] are 10 to 100 nM and 100 to 1000 nM.
In the same order, the values of `N#CCCn1cc(-n2c(-c3ccccc3F)nc3cnc4[nH]ccc4c32)cn1` [LXS83, 3-(4-(2-(2-Fluorophenyl)imidazo[4,5-d]pyrrolo[2,3-b]pyridin-1(6H)-yl)-1H-pyrazol-1-yl)propanenitrile] are 10 to 100 nM and 10 to 100 nM.
The corresponding values for `N#CCCN1CCC(n2c(-c3ccc(CO)o3)nc3cnc4[nH]ccc4c32)C1` (stereo not drawn) [LXS51, 3-(3-(2-(5-(Hydroxymethyl)furan-2-yl)imidazo[4,5-d]pyrrolo[2,3-b]pyridin-1(6H)-yl)pyrrolidin-1-yl)propanenitrile] are 10 to 100 nM and 10 to 100 nM.
As to `Cc1ccc(-c2nc3cnc4[nH]ccc4c3n2-c2cnn(CCCC#N)c2)s1` [LXS105], the values for the IC50 in assay [1] and in assay [2] were 100 to 1000 nM and 10 to 100 nM, respectively.
With `CCS(=O)(=O)N1CC(CC#N)(n2cc(-n3c(-c4ccc(CO)o4)nc4cnc5[nH]ccc5c43)cn2)C1` [LXS13, 2-(1-(ethylsulfonyl)-3-(4-(2-(5-(hydroxymethyl)furan-2-yl)imidazo[4,5-d]pyrrolo[2,3-b]pyridin-1(6H)-yl)-1H-pyrazol-1-yl)azetidin-3-yl)acetonitrile], the results for the IC50 in assay [1] and in assay [2] were 100 to 1000 nM and 10 to 100 nM, respectively.
In the same order, the values of `Cc1ccc(-c2nc3cnc4[nH]ccc4c3n2-c2cnn(CCCC#N)c2)o1` [LXS104, 4-(4-(2-(5-methylfuran-2-yl)imidazo[4,5-d]pyrrolo[2,3-b]pyridin-1(6H)-yl)-1H-pyrazol-1-yl)butanenitrile] are 10 to 100 nM and 10 to 100 nM.
Turning to `O=S(=O)(N1CCC(n2c(-c3ncc[nH]3)nc3cnc4[nH]ccc4c32)C1)C(F)(F)F` (stereo not drawn) [LXS19, 2-(1H-imidazol-2-yl)-1-(1-((trifluoromethyl)sulfonyl)pyrrolidin-3-yl)-1,6-dihydroimidazo[4,5-d]pyrrolo[2,3-b]pyridine], the IC50 in assay [1] and in assay [2] was 10 to 100 nM in each case.
Compound `Cc1ccc(-c2nc3cnc4[nH]ccc4c3n2-c2cnn(CCC#N)c2)s1` [LXS84, 3-(4-(2-(5-Methylthiophen-2-yl)imidazo[4,5-d]pyrrolo[2,3-b]pyridin-1(6H)-yl)-1H-pyrazol-1-yl)propanenitrile] returned an IC50 in assay [1] of 10 to 100 nM.
As to `CCCS(=O)(=O)N1CC(CC#N)(n2cc(-n3c(-c4ccc(CO)o4)nc4cnc5[nH]ccc5c43)cn2)C1` [LXS14, 2-(1-(propylsulfonyl)-3-(4-(2-(5-(hydroxymethyl)furan-2-yl)imidazo[4,5-d]pyrrolo[2,3-b]pyridin-1(6H)-yl)-1H-pyrazol-1-yl)azetidin-3-yl)acetonitrile], the IC50 in assay [1] lay within 100 to 1000 nM.

(Values after US20240383898A1, “PYRIDO RING COMPOUND, PREPARATION METHOD THEREFOR, INTERMEDIATE, COMPOSITION, AND APPLICATION” (YIYOU BIOTECH (SHANGHAI) CO., LTD, priority 2021, published 2024).)
